{"source": "patent US6638963B1", "about": "“Methods for treating circadian rhythm disorders” (Oregon Health and Science University, priority 1990, dated 2003)", "assay_type_in_all_cases": "in vivo, human", "key": {"[1]": {"test_system": "endogenous circadian pacemaker", "experiment": "Dose effect of melatonin on shift of the endogenous circadian pacemaker", "settings": "melatonin dosages from about 0.125 mg to about 0.5 mg", "source_text": "The present invention contemplates the administration of various doses of melatonin which promote quantitative shifts in an individual's endogenous circadian pacemaker. The administration of sufficient doses of melatonin is capable of shifting the endogenous circadian pacemaker, as well as the melatonin PRC, by an appropriate degree. […] The amount of melatonin administered to a human subject should be sufficient to achieve the desired circadian rhythm phase-shifting effect. In a preferred embodiment of this invention, a dosage of about 0.01 mg to about 100 mg, more preferably about 0.1 mg to about 10 mg, most preferably about 0.1 mg to about 1 mg, of exogenous melatonin is used to effect the desired change in phase of the circadian rhythm of endogenous melatonin production. For the purposes of this invention, the term “exogenously administered melatonin” encompasses various formulations of melatonin, melatonin agonists (that is, compounds that mimic melatonin's actions) and compounds that raise endogenous melatoriin levels. Therefore, whenever reference is made to increasing plasma melatonin levels due to administration of exogenous melatonin, this refers also to increasing plasma melatonin levels due to administration of a melatonin stimulant and increasing equivalent agonist levels due to administration of a melatonin agonist. […]"}, "[2]": {"test_system": "patients with winter depression", "experiment": "Treatment of patients with winter depression, SIGH-SAD depression ratings, melatonin versus placebo (Example 11)", "settings": "for SIGH-SAD change score from pre-treatment: 0.125 mg per capsule at about CT 8 and about CT 12, N=5, p<0.05 vs placebo", "description": "Patients with winter depression were treated with either melatonin (N=5) or placebo (N=5). All subjects were screened prior to being admitted into the study and met the following criteria: 1) the DSM-IV criteria (American Psychiatric Association, 1994) for moderate to severe major depressive disorder (without psychotic episodes) or bipolar disorder (depressed or not otherwise specified) with a winter type seasonal pattern; 2) scored […] on the Structured Interview Guide for the Hamilton Depression Rating Scale Seasonal Affective Disorder Version (SIGH-SAD) (Williams et al., 1994, Structured Interview Guide for the Hamilton Depression Scale-Seasonal Effective Disorder Version (SIGH-SAD), New York: New York State Psychiatric Institute) with Hamilton Depression Scale (HAM-D) (Hamilton, 1967, Brit. J. Soc. Clin. Psychol. 6: 278-296)≦10 and an atypical score ≦5 ([…] et al., 1990, Neuropsychopharmacol. […] Prior to inclusion in the study, subjects were interviewed by a physician and also completed 7 a health and sleep screening questionnaire. Written informed consent was obtained for all participants. The study was a three-week, parallel-group design, consisting of a pre-treatment assessment followed by three treatment weeks. Subjects were randomly assigned to either a melatonin or placebo group and were counter balanced based on their initial depression scores (SIGH-SAD) and their reported awakening times. Each group received melatonin or placebo in two daily capsules at about CT 8 and about CT 12, estimated from each subject's initial reported awakening time (about CT 0). The dose of melatonin was 0.125 mg per capsule. For behavioral ratings, subjects were initially interviewed face-to-face using the 29-item Structured Interview Guide for the Hamilton Depression Rating Scale-Seasonal Affective Disorder version (SIGH-SAD). Two subsequent interviews were done weekly by telephone and the third and final interview was conducted in person. All interviews were conducted by a researcher blind to treatment conditions. For the three-week period, subjects completed a Likert daily rating form and a daily sleep diary. To specifically assess fatigue associated with the capsule, subjects also completed a Profile of Mood States (POMS) 30 minutes after ingestion of each capsule. In addition, pre-study and weekly expectations questionnaires were completed. Ten patients (9 females) with winter depression were admitted into the study. The mean age of the melatonin group was 37 (SD=13.6; range: 22-58) and the placebo group was 32.2 (SD=8.6; range: 22-42). The mean pre-treatment SIGH-SAD score for the placebo group was 29.4; the melatonin group mean was 29.2. The initial reported mean wake up time for the placebo group was 7:12 AM; the melatonin group mean was 7:20 AM. […]"}, "[3]": {"test_system": "dim light melatonin onset (DLMO)", "experiment": "Melatonin phase response curve trials, single 0.5 mg immediate-release dose (Example 3)", "description": "(§1) Prior to collection of human blood, subjects were kept in dim light for about 5 hours (usually between 6 p.m. and 11 p.m.). An intravenous line or heparin lock was inserted in a forearm vein and 5 mL of blood drawn every 30 minutes between 7 p.m. and 11 p.m. The blood samples were centrifuged for 5 minutes at 1000 g and 4° C., and the plasma aspirated into a silanized glass or plastic tube. Samples were assayed immediately or frozen for later analysis. Saliva samples can alternatively be collected and analyzed\nTo a 1 mL aliquot of such plasma was added 50 picograms of N-acetyl-5-methoxy(α,α,β,β-D4)tryptamine as a chromatographic control. An equal volume of normal saline was added and the mixture gently shaken with 8 volumes of petroleum ether. The organic phase was removed, and melatonin and the added N-acetyl-5-methoxy(α,α,β,β-D4)tryptamine control extracted from the aqueous phase with 8 volumes of chloroform. The aqueous phase was then discarded, and the chloroform evaporated to dryness.\nThe dried extract containing melatonin and the added N-acetyl-5-methoxy(α,α,β,β-D4)tryptamine control was dissolved in 50 μL ethyl acetate. The melatonin contained in the plasma samples and the added N-acetyl-5-methoxy(α,α,β,β-D4)tryptamine control were then derivatized by the addition of 50 μL of pentafluoroproprionic acid anhydride and reacted at 70° C. for 10 minutes. These reaction products were then evaporated to dryness under nitrogen. The dried extract was partitioned between 0.5 mL acetonitrile and 1 mL hexane by vigorous mixing followed by centrifugation and removal of the hexane layer. This partitioning step was repeated twice more, except that the hexane was not removed after the final partitioning. […]\n(§2) The amount of melatonin present in each sample was determined by gas chromatographic-mass spectrometric analysis. […]\nMass spectrographic analysis of the column eluant was then performed. Mass spectra were recorded using a Hewlett Packard 5989A mass spectrometer with an ETP Scientific electron multiplier using HP Chemstation software. The relative signals of melatonin and the added N-acetyl-5-methoxy(α,α,β,β-D4)tryptamine control were detected at m/e (mass/charge) ratios of 320 and 323, respectively. The amount of melatonin present in any unknown sample can be determined by comparison of the ratio of the intensities of these signals to a standard curve, prepared as described using known amounts of melatonin and added N-acetyl-5-methoxy(α,α,β,β-D4)tryptamine control.\nMelatonin was administered to five subjects as a single 0.5 mg (or immediate-release (IR)) dose. […] Dim light melatonin onset (DLMO) times were determined at the end of each week. Phase shifts were calculated from a comparison of the post-treatment DLMO to the pre-treatment DLMO. […]"}, "[4]": {"test_system": "dim light melatonin onset (DLMO)", "experiment": "Melatonin phase response curve trials, two doses of 0.25 mg two hours apart (Example 2)", "settings": "four days, nine subjects, 30 trials, time referenced to first capsule", "description": "as §1\nTo a 1 mL aliquot of such plasma was added 50 picograms of N-acetyl-5-methoxy(α,α,β,β-D4)tryptamine as a chromatographic control. […]\nas §2\nMass spectrographic analysis of the column eluant was then performed. Mass spectra were recorded using a Hewlett Packard 5989A mass spectrometer with an ETP Scientific electron multiplier using HP Chemstation software. The relative signals of melatonin and the added N-acetyl-5-methoxy(α,α,β,β-D4)tryptamine control were detected at m/e (mass/charge) ratios of 320 and 323, respectively. […]\nMelatonin was administered to nine subjects as two doses of 0.25 mg, two hours apart, thereby simulating a sustained-release (SR) formulation. […] Phase shifts were calculated by subtracting the post-treatment DLMO from the pre-treatment DLMO. […]"}, "[5]": {"settings": "both PRC studies (Examples 2 and 3)"}}, "data": [{"smiles": "COc1ccc2[nH]cc(CCNC(C)=O)c2c1", "note": "[melatonin, N-acetyl-5-methoxytryptamine]", "values": [{"measurement": "dose effect on shift of endogenous circadian pacemaker", "setting": "[1]", "value": "linear dose effect"}, {"measurement": "SIGH-SAD change score from pre-treatment", "setting": "[2]; Week 1", "value": 15.4}, {"measurement": "SIGH-SAD change score from pre-treatment", "setting": "[2]; Week 2", "value": 16.8}, {"measurement": "responders (39% or greater decrease in SIGH-SAD ratings to a score of 21 or less)", "setting": "[2]; five subjects per group, one responder in placebo group, p=0.048, Fisher's Exact test", "value": "all five subjects responded"}, {"measurement": "SIGH-SAD scores after two weeks of capsules, melatonin versus placebo", "setting": "[2]; one-tailed unpaired t-test, p=0.05", "value": "significant difference"}, {"measurement": "crossover point between advance and delay responses of the melatonin PRC", "setting": "[3]; [5]", "value": "~18", "unit": "CT"}, {"measurement": "crossover point between delay and advance responses of the melatonin PRC", "setting": "[3]; [5]", "value": "~6", "unit": "CT"}, {"measurement": "circadian time for maximal phase advances", "setting": "[3]; single 0.5 mg IR dose, four days, five subjects, twelve trials each", "value": "~11", "unit": "CT"}, {"measurement": "circadian time at which phase delays begin", "setting": "[3]; single 0.5 mg IR dose, same time as found in Example 2", "value": "~6", "unit": "CT"}, {"measurement": "circadian time of administration at which maximal phase advances occur", "setting": "[4]", "value": "~7.5", "unit": "CT"}]}]}
